# Target: recombinant eIF4E (Homo sapiens (Human), UniProt P06730)
# Experiment: Fluorescence polarization competition assay for eIF4E binding potency
# Conditions: inhibition of eIF4E/EDA-m7GDP-ATTO-550 binding; calculated IC50 values, Table 4B; read-out: IC50
# Outline: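 Competitive displacement format: compounds compete with a fluorescent m7GDP tracer (20 nM) for 75 nM recombinant eIF4E. Incubation is 30 min at room temperature, protected from light, with 1% DMSO. Polarization read gives IC50 over eight 3-fold concentrations.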
# Chain of recombinant eIF4E (P06730 whole entry): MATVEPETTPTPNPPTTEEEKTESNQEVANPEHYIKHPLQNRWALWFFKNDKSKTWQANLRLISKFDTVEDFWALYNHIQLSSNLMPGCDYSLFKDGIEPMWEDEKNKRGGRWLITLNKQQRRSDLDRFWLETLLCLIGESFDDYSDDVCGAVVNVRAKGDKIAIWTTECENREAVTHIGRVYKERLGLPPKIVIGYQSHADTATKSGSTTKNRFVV
row,IC50,SMILES
1,8.32 nM,CCN(c1ncc2nc(C)n(CC#Cc3ccc(Cl)cc3-c3ccnc4c(C(=O)NS(=O)(=O)c5ccccn5)csc34)c(=O)c2c1C#N)C1CCN([C@H]2C[C@@H](OC(F)(F)F)C2)CC1 [compound 1781]
2,10.1 nM,Cc1nc2cnc(N(C)C3CCN([C@H]4C[C@H](F)C4)CC3)c(C#N)c2c(=O)n1CC#Cc1ccc(Cl)cc1-c1ccnc2c(C(=O)NS(=O)(=O)C3COC3)csc12 [compound 1791]
3,9.24 nM,Cc1nc2cnc(N(C)C3CCN([C@H]4C[C@H](F)C4)CC3)c(C#N)c2c(=O)n1CC#Cc1ccc(Cl)cc1-c1ccnc2c(C(=O)NS(=O)(=O)c3ccncc3)csc12 [compound 1792]
4,7.29 nM,Cc1nc2cnc(N(C)C3CCN([C@H]4C[C@H](F)C4)CC3)c(C#N)c2c(=O)n1CC#Cc1ccc(Cl)cc1-c1ccnc2c(C(=O)NS(=O)(=O)c3ccccn3)csc12 [compound 1793]
5,9.28 nM,Cc1nc2cnc(N(C)C3CCN([C@H]4C[C@H](F)C4)CC3)c(C#N)c2c(=O)n1CC#Cc1ccc(Cl)cc1-c1ccnc2c(C(=O)NS(=O)(=O)c3cccnc3)csc12 [compound 1794]
6,8.96 nM,CCN(c1ncc2nc(C)n(CC#Cc3ccc(Cl)cc3-c3ccnc4c(C(=O)O)csc34)c(=O)c2c1C#N)C1CCN([C@H]2C[C@H](F)C2)CC1 [compound 1795]
7,10.4 nM,CCS(=O)(=O)NC(=O)c1csc2c(-c3cc(Cl)ccc3C#CCn3c(C)nc4cnc(N(C)C5CCN(C6CC(F)(F)C6)CC5)c(C#N)c4c3=O)ccnc12 [compound 1807]
8,5.4 nM,Cc1nc2cnc(N(C)C3CCN(C4CC(F)(F)C4)CC3)c(C#N)c2c(=O)n1CC#Cc1ccc(Cl)cc1-c1ccnc2c(C(=O)NS(=O)(=O)C(C)C)csc12 [compound 1808]
9,7.57 nM,Cc1nc2cnc(N(C)C3CCN(C4CC(F)(F)C4)CC3)c(C#N)c2c(=O)n1CC#Cc1ccc(Cl)cc1-c1ccnc2c(C(=O)NS(=O)(=O)C3CC3)csc12 [compound 1809]
10,12.9 nM,Cc1nc2cnc(N(C)C3CCN(C4CC(F)(F)C4)CC3)c(C#N)c2c(=O)n1CC#Cc1ccc(Cl)cc1-c1ccnc2c(C(=O)NS(=O)(=O)C3CCC3)csc12 [compound 1810]
11,12.7 nM,Cc1nc2cnc(N(C)C3CCN(C4CC(F)(F)C4)CC3)c(C#N)c2c(=O)n1CC#Cc1ccc(Cl)cc1-c1ccnc2c(C(=O)NS(=O)(=O)C3COC3)csc12 [compound 1811]
12,18.4 nM,Cc1nc2cnc(N(C)C3CCN(C4CC(F)(F)C4)CC3)c(C#N)c2c(=O)n1CC#Cc1ccc(Cl)cc1-c1ccnc2c(C(=O)NS(=O)(=O)C(C)(C)C)csc12 [compound 1812]
13,25.8 nM,Cc1nc2cnc(N(C)C3CCN(C4CC(F)(F)C4)CC3)c(C#N)c2c(=O)n1CC#Cc1ccc(Cl)cc1-c1ccnc2c(C(=O)NS(=O)(=O)CF)csc12 [compound 1817]
14,13 nM,Cc1nc2cnc(N(C)C3CCN(C4CC(F)(F)C4)CC3)c(C#N)c2c(=O)n1CC#Cc1ccc(Cl)cc1-c1ccnc2c(C(=O)NS(=O)(=O)C(F)(F)F)csc12 [compound 1818]
15,4.4 nM,Cc1nc2cnc(N(C)C3CCN(C4CC(F)(F)C4)CC3)c(C#N)c2c(=O)n1CC#Cc1ccc(Cl)cc1-c1ccnc2c(C(=O)NS(=O)(=O)CC(F)F)csc12 [compound 1819]
16,17.1 nM,Cc1nc2cnc(N(C)C3CCN(C4CC(F)(F)C4)CC3)c(C#N)c2c(=O)n1CC#Cc1ccc(Cl)cc1-c1ccnc2c(C(=O)NS(=O)(=O)CC#N)csc12 [compound 1825]

# The next lines start with the compound.
row,SMILES,IC50
1,CCN(c1ncc2nc(C)n(CC#Cc3ccc(Cl)cc3-c3ccnc4c(C(=O)NS(=O)(=O)C5COC5)csc34)c(=O)c2c1C#N)C1CCN(C2COC2)CC1 [compound 1750],16.1 nM
2,Cc1nc2cnc(N(C)C3CCN([C@H]4C[C@H](OC(F)F)C4)CC3)c(C#N)c2c(=O)n1CC#Cc1ccc(Cl)cc1-c1ccnc2c(C(=O)NS(C)(=O)=O)csc12 [compound 1761],5.65 nM
3,Cc1nc2cnc(N(C)C3CCN([C@H]4C[C@H](OC(F)F)C4)CC3)c(C#N)c2c(=O)n1CC#Cc1ccc(Cl)cc1-c1ccnc2c(C(=O)NS(=O)(=O)C3COC3)csc12 [compound 1762],25 nM
4,Cc1nc2cnc(N(C)C3CCN([C@H]4C[C@H](OC(F)F)C4)CC3)c(C#N)c2c(=O)n1CC#Cc1ccc(Cl)cc1-c1ccnc2c(C(=O)NS(=O)(=O)c3ccccn3)csc12 [compound 1763],23.3 nM
5,Cc1nc2cnc(N(C)C3CCN([C@H]4C[C@H](OC(F)F)C4)CC3)c(C#N)c2c(=O)n1CC#Cc1ccc(Cl)cc1-c1ccnc2c(C(=O)NS(=O)(=O)c3ccncc3)csc12 [compound 1764],19 nM
6,Cc1nc2cnc(N(C)C3CCN([C@H]4C[C@H](OC(F)F)C4)CC3)c(C#N)c2c(=O)n1CC#Cc1ccc(Cl)cc1-c1ccnc2c(C(=O)NS(=O)(=O)c3cccnc3)csc12 [compound 1765],12.3 nM
7,CCN(c1ncc2nc(C)n(CC#Cc3ccc(Cl)cc3-c3ccnc4c(C(=O)NS(C)(=O)=O)csc34)c(=O)c2c1C#N)C1CCN([C@H]2C[C@H](OC(F)F)C2)CC1 [compound 1767],17.4 nM
8,CCN(c1ncc2nc(C)n(CC#Cc3ccc(Cl)cc3-c3ccnc4c(C(=O)NS(=O)(=O)C5COC5)csc34)c(=O)c2c1C#N)C1CCN([C@H]2C[C@H](OC(F)F)C2)CC1 [compound 1768],31.3 nM
9,CCN(c1ncc2nc(C)n(CC#Cc3ccc(Cl)cc3-c3ccnc4c(C(=O)NS(=O)(=O)c5ccncc5)csc34)c(=O)c2c1C#N)C1CCN([C@H]2C[C@H](OC(F)F)C2)CC1 [compound 1769],16.4 nM
10,CCN(c1ncc2nc(C)n(CC#Cc3ccc(Cl)cc3-c3ccnc4c(C(=O)NS(=O)(=O)c5cccnc5)csc34)c(=O)c2c1C#N)C1CCN([C@H]2C[C@H](OC(F)F)C2)CC1 [compound 1770],17.5 nM
11,CCN(c1ncc2nc(C)n(CC#Cc3ccc(Cl)cc3-c3ccnc4c(C(=O)NS(=O)(=O)c5ccccn5)csc34)c(=O)c2c1C#N)C1CCN([C@H]2C[C@H](OC(F)F)C2)CC1 [compound 1771],26.6 nM
12,Cc1nc2cnc(N(C)C3CCN([C@H]4C[C@@H](OC(F)(F)F)C4)CC3)c(C#N)c2c(=O)n1CC#Cc1ccc(Cl)cc1-c1ccnc2c(C(=O)NS(C)(=O)=O)csc12 [compound 1772],6.07 nM
13,Cc1nc2cnc(N(C)C3CCN([C@H]4C[C@@H](OC(F)(F)F)C4)CC3)c(C#N)c2c(=O)n1CC#Cc1ccc(Cl)cc1-c1ccnc2c(C(=O)NS(=O)(=O)c3ccncc3)csc12 [compound 1773],47.5 nM
14,Cc1nc2cnc(N(C)C3CCN([C@H]4C[C@@H](OC(F)(F)F)C4)CC3)c(C#N)c2c(=O)n1CC#Cc1ccc(Cl)cc1-c1ccnc2c(C(=O)NS(=O)(=O)c3cccnc3)csc12 [compound 1774],45 nM
15,CCN(c1ncc2nc(C)n(CC#Cc3ccc(Cl)cc3-c3ccnc4c(C(=O)O)csc34)c(=O)c2c1C#N)C1CCN([C@H]2C[C@@H](OC(F)(F)F)C2)CC1 [compound 1775],32.1 nM
16,CCN(c1ncc2nc(C)n(CC#Cc3ccc(Cl)cc3-c3ccnc4c(C(=O)NS(C)(=O)=O)csc34)c(=O)c2c1C#N)C1CCN([C@H]2C[C@@H](OC(F)(F)F)C2)CC1 [compound 1776],3.65 nM
17,CCN(c1ncc2nc(C)n(CC#Cc3ccc(Cl)cc3-c3ccnc4c(C(=O)NS(=O)(=O)c5ccncc5)csc34)c(=O)c2c1C#N)C1CCN([C@H]2C[C@@H](OC(F)(F)F)C2)CC1 [compound 1779],35.1 nM
18,CCN(c1ncc2nc(C)n(CC#Cc3ccc(Cl)cc3-c3ccnc4c(C(=O)NS(=O)(=O)c5cccnc5)csc34)c(=O)c2c1C#N)C1CCN([C@H]2C[C@@H](OC(F)(F)F)C2)CC1 [compound 1780],10.9 nM

# Source: patent US11286268B1, “EIF4E-inhibiting compounds and methods” (EFFECTOR THERAPEUTICS, INC., priority 2019, dated 2022)
